The values that follow come from patent publication US20180064635A1, “COSMETIC COMPOSITION COMPRISING SLIME OF SNAIL FED WITH BERRY FRUITS AND PREPARATION METHOD THEREOF” (CREALAND CO., LTD, priority 2015, published 2018).

Experiment [1] is described as follows: Skin moisturizing effect, capacitance measurement on flexor surface of the forearm. In kind it is in vivo, human (30 females in their 20s and 30s). To be noted: 1 wt % aqueous solution, 2.0 mg/cm2. How it is done: Measurement of moisturizing effect of snail slime filtrates prepared in Examples 1 and 2 and Comparative Examples 1 and 2 was carried out by a capacitance measurement scheme using an oil and moisture analyzer (WSK-P500U, Inforward. Inc., Japan). 1 wt % an aqueous solution of the snail slime filtrates prepared in Examples 1 and 2 and Comparative Examples 1 and 2 was compared with 1 wt % aqueous solution of hyaluronic acid sodium salt (Sigma) which is known to be excellent in a skin moisturizing effect based on various studies.
30 females in their 20s and 30s were targeted, a flexor surface of the forearm was allowed to acclimate to a constant temperature and humidity chamber (22° C. and 40-60% of relative humidity) for 20 minutes right before the test starts, and the moisture of the skin was constantly maintained. Then, after measuring the initial moisture content of an application site of each sample using the oil and moisture analyzer (WSK-P500U, Inforward. Inc., Japan), each of the samples at 2.0 mg/cm2 was applied at a different position for each examinee to minimize an error according to the flexor surface of the forearm. The skin moisture was firstly measured at time intervals of 10 minutes, 30 minutes, 50 minutes, 90 minutes, and 120 minutes after the application, and after 2 hours, the skin moisture was measured again.
Each measurement site was measured repeatedly for three times and skin moisture was calculated by the average value.

The nature of experiment [2]: Active oxygen scavenging test (xanthine/xanthine oxidase, NBT). In kind it is biochemical. To be noted: snail slime filtrates, absorbance 540 nm. On the procedure:
In the active oxygen scavenging test, changes on the absorbance are measured using the oxidation of nitroblue tetrazolium (NBT) by active oxygen by using active oxygen generation upon enzymatic reaction of xanthine/xanthine oxidase (Sigma), thus the scavenging ability of the active oxygen can be confirmed.
2.4 ml of sodium carbonate (Na2CO3), 0.1 ml of xanthine (Sigma), 0.1 ml of ethylene diamine tetra acetic acid (EDTA), 0.1 ml of bovine serum albumin (BSA, Sigma), 0.1 ml of NBT, and 1 ml of the snail slime filtrates prepared in Examples 1 and 2 and Comparative Examples 1 and 2 were added, vortexing was carried out by using a vortex mixer (Type 37600 Mixer, Mini mix, USA), the mixture was left at 25° C. for 10 minutes. After 0.1 ml of xanthine oxidase was added and reacted at 25° C. for 20 minutes, the reaction was stopped by inputting 6 mM of CuCl2, and the absorbance was measured at the wavelength of 540 nm by using a microplate reader (UVT-06685, Thermo max, USA).
The control group in the active oxygen scavenging activity test was measured in the same manner by inputting third distilled water instead of the sample solution. […]
Active oxygen scavenging rate (%)=100−((absorbance of sample/absorbance of control group)×100)

Experiment [3] is described as follows: Free radical scavenging test (DPPH). In kind it is biochemical. Particulars: snail slime filtrates, 37° C. 15 minutes, absorbance 540 nm. How it is done: A free radical scavenging test and a reactive oxygen scavenging test were performed in order to confirm the antioxidant effect of the snail slime filtrates prepared in Examples 1 and 2 and Comparative Examples 1 and 2, as a verifying test for a skin aging improvement effect.
The snail slime filtrates prepared in the above Examples 1 and 2 and Comparative Examples 1 and 2 were diluted with methanol in a predetermined concentration, and 1 ml of the dilution was mixed with 1 ml of a 0.1 mM 2,2-diphenyl-1-picryl-hydrazyl radical (DPPH, Sigma) solution. After the mixture leaves at 37° C. for 15 minutes, the absorbance was measured at the wavelength of 540 nm by using a microplate reader (Thermo max, USA).
In the above free radical scavenging test, the control group was measured In the same manner by inputting 1 ml of DPPH and 1 ml of methanol, and color correction values were obtained with respect to each of the sample and the control group by inputting 1 ml of methanol and 1 ml of sample.
SC50 is the concentration of the sample required to scavenge 50% of the free radicals, and the smaller value indicates the higher antioxidant activity.
Free radical scavenging rate (%)=100−((absorbance of sample/absorbance of control group)×100)
In general terms: DPPH is a stable violet radical that fades when it is reduced.

Consider hyaluronic acid sodium salt, for which the “Moisture content subject to time after application” value in experiment [1] (10 minutes after application) is 61.31 A.U; in experiment [1] (30 minutes after application), 58.24 A.U; in experiment [1] (50 minutes after application) it was 57.21 A.U; in experiment [1] (90 minutes after application), 55.87 A.U; in experiment [1] (120 minutes after application), 52.11 A.U.
With `Cc1cc(C(C)(C)C)c(O)c(C(C)(C)C)c1` [BHT], in experiment [2], the “Active oxygen scavenging rate IC50” value was 154 ppm. For the same compound, in experiment [3], the “Free radical scavenging rate SC50” value is given as 125 ppm.
